# Reference: patent US9897592B2, “Methods for identifying arthropod repellents and attractants, and compounds and compositions identified by such methods” (The Regents of the University of California, priority 2013, dated 2018)
# Columns and labels:
# cpA neuron [1] = experiment: Single-sensillum recording: activation of cpA neuron by odorants; type: cell-based, Aedes aegypti
# Summary of the method: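 Single-sensillum extracellular recordings from cp sensilla of adult female A. aegypti (Rockefeller), 3-12 days post-emergence. Odorants at 10^−2 in paraffin oil or water, 0.5-s pulses; solvent response subtracted, spikes counted; n=2-6, sensilla with <20 spikes s^−1 to negative control only.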
# cpA neuron [2] = experiment: cpA dose response in C. quinquefasciatus; type: cell-based, Culex quinquefasciatus
# Protocol: FIG. 4d is a graph illustrating the dose responses of the cpA neuron to cyclopentanone in A. aegypti and C. quinquefasciatus, where n=5-6.
# Adult female A. aegypti (Linnaeus 1762) (Rockefeller strain) A. gambiae sensu stricto Giles 1902 (G3 strain), or C. quinquefasciatus Say 1823 were tested 3-12 days post-emergence with single-sensillum extracellular recordings. Chemicals were obtained from Sigma-Aldrich at the highest purity (typically >99%) and were dissolved in paraffin oil or water. […] Response to clean beads was subtracted from the results reported. Only sensilla with cpA activity of <20 spikes s^−1 to negative control were considered for analysis.
# Taken together, the strong and conserved cpA response, promising safety and fragrance profile, and ability to mimic CO2 activation made cyclopentanone an excellent candidate for behavioural testing.
# C. quinquefasciatus = experiment: Semi-field two-choice greenhouse trapping; type: in vivo, Culex quinquefasciatus
# Text: FIG. 4g is a schematic of two-choice greenhouse experiments with two counterflow geometry traps, in which mosquitoes were trapped overnight in odorant-baited and solvent (water)-baited traps.
# Semi-field trapping: Two modified greenhouses at the Agricultural Experiment Station at the University of California, Riverside, were used as described previously^2, with modifications. Fifty laboratory-reared, mated, non-blood fed female C. quinquefasciatus aged 8-14 days and starved for 24 hrs were released each evening around 5 pm and traps collected at ˜7 am. Counter flow geometry traps baited with CO2 (250 ml min^−1, ˜670 mmol/hr) odorant were used as described^2, with modifications. Odorant solutions in water were dispensed from 20 cm long gauze wicks protruding from uncapped 50 ml tubes beneath the trap outflow. For each trial, one baited trap and one control trap (water-filled) were placed in each of two greenhouses (FIG. 4g). For two-choice CO2 trials, water was placed under both traps. For two-choice ethyl pyruvate trials, both traps expelled CO2, and one trap also released ethyl pyruvate from an open 2.8×7 cm glass vial. Since ethyl pyruvate has very low volatility pure compound was used to generate ˜1.7 mmol/hr. An empty vial was placed under control traps. Treatment position and trap were alternated across trials. Volume of solution lost from tubes containing 5%, 10%, or 20% cyclopentanone were measured after each trial and the average loss of molecules calculated respectively for 3 concentrations as (±s.d.) of 0.7 (±0.1), 1.7 (±0.4), and 3.8 (±0.3) mmol/hr, respectively. Preference index=(# mosquitoes in odor-baited trap−# mosquitoes in control trap)/(total # mosquitoes caught in both traps).
# The efficacy of cyclopentanone as a lure was tested using traps in controlled semi-field experiments with C. quinquefasciatus, a mosquito present in Southern California, where the experiments took place. 50 female mosquitoes were released overnight in a modified greenhouse that contained two counter-flow geometry mosquito traps (FIG. 4g). One trap was baited with an evaporative lure of cyclopentanone diluted in water, and the second trap was baited with water alone.
# [3] = test system: mammalian cation channels; conditions: cited from earlier work
# [4] = target: human acetylcholinesterase (Homo sapiens, UniProt P22303); conditions: cited from earlier work
# human acetylcholinesterase, sequence (P22303 32-614): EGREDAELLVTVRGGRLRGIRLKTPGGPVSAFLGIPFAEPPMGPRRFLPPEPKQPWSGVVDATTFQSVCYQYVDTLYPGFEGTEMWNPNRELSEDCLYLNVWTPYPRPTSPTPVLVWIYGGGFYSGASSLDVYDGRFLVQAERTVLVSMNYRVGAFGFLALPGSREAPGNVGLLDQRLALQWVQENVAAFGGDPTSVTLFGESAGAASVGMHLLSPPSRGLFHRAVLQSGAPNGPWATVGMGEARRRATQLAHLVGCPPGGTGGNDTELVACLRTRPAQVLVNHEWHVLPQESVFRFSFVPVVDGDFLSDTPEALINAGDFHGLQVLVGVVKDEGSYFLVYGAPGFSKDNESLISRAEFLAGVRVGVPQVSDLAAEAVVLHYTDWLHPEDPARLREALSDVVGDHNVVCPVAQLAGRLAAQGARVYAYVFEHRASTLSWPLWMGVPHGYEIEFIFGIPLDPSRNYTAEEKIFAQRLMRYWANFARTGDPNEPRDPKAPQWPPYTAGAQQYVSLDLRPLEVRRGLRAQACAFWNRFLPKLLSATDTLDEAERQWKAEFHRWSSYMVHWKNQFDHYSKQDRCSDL
Structure (SMILES),"Activation (spikes s^−1) (cpA neuron [1]; A. aegypti cpA, 0.5-s pulses, odorants 10^−2 in paraffin oil or water, solvent response subtracted)",cpA activation (cpA neuron [1]; A. aegypti dose response),cpA activation (cpA neuron [2]),fold fewer molecules released than CO2 for comparable catch rate (C. quinquefasciatus; calculated from amount evaporated) [fold],"trap preference, odorant-baited vs solvent-baited trap (C. quinquefasciatus; evaporative lure in water, overnight)",capture numbers relative to CO2-baited traps (C. quinquefasciatus; similar trials in parallel),inhibition of mammalian cation channels [3],inhibition of human acetylcholinesterase [4]
O=C1CCCC1 [Cyclopentanone],120.1,strong activator,strong activator,~176,preferred cyclopentanone over solvent-baited traps in a dose-dependent manner,comparable,,
"CCN(CC)C(=O)c1cccc(C)c1 [DEET, N,N-Diethyl-m-toluamide]",,,,,,,inhibit,inhibit
